Values quoted from earlier work, collected in patent publication US8347551B2, “Method of applying pesticides” (priority 2004, dated 2013).
Read-outs that look alike come from different tables or passages of the source.

Legend:
pest [1] = details: seed treatment; dose giving sufficient control of the pest; dutch registration code no. 8672
pest [2] = details: seed treatment, dose giving sufficient control of the pest
pest [3] = details: seed treatment; dose giving sufficient control of the pest; dutch registration code no. 11455
pest [4] = details: seed treatment; dose giving sufficient control of the pest; dutch registration code no. 8928
pest [5] = details: seed treatment; dose giving sufficient control of the pest; dutch registration code no. 11492

In the case of `COC(=O)Nc1nc2ccccc2[nH]1` [carbendazim], the “Effective Dose” value (pest [1]) is listed as 1 g per kg onion seeds.
In the case of `CCOP(=S)(OCC)Oc1nc(Cl)c(Cl)cc1Cl` [chlorpyriphos], the “Effective Dose” value (pest [2]; dutch registration code no. 10968) is given as 0.096 g per 1000 brassica seeds.
For `O=[N+]([O-])NC1=NCCN1Cc1ccc(Cl)nc1` [imidacloprid], the “Effective Dose” value (pest [3]) is listed as 0.8 g per 1000 lettuce seeds.
For `CC(C)NC(=O)N1CC(=O)N(c2cc(Cl)cc(Cl)c2)C1=O` [iprodione], the “Effective Dose” value (pest [4]) is given as 5 g per kg carrot seeds.
In the case of `COCC(=O)N(c1c(C)cccc1C)[C@H](C)C(=O)OC` [metalaxyl-m], the “Effective Dose” value (pest [2]; dutch registration code no. 12280) is given as 0.175 g per kg brassica seeds.
For `CN(C)C(=S)SSC(=S)N(C)C` [thiram], the “Effective Dose” value (pest [5]) is given as 1.6 g per kg radish seeds.
